For assay [1], the system named is P. falciparum chloroquine-sensitive line 3D7. Put plainly: SYBR Green I-based antiplasmodial assay, asexual blood stage, 3D7. The class given is cell-based, Plasmodium falciparum. On the procedure:
The antiplasmodial activity of these analogs was assessed in P. falciparum asexual blood stage using a SYBR Green I-based assay. Compounds were tested in both the multidrug resistant line Dd2, and the chloroquine-sensitive line 3D7, to probe any potential for preexisting resistance. […] These methyldeoxaphomin analogs were also cross-screened for cytotoxicity in the human cell line HepG2 to determine their selectivity for the Plasmodium parasite. […] This effect was maintained with analog NPDG-F where both R1 and R2 were substituted with OH groups. […] In addition, the hydroxyl group at carbon 7 seems to be critical for function as a drastic loss of potency was found in NPDG-D as compared to B and C. […]
Plasmodium blood stage culture
Parasite culture in the Chakrabarti lab was maintained following a modified Trager and Jensen protocol (Trager & Jensen, 1976) as previously described (Lee et al., 2021) with RPMI 1640 with 25 mM HEPES pH 7.4, 26 mM NaHCO3, 15 mg/L hypoxanthine, 0.5% Albumax II, 25 mg/L gentamycin, and 2% dextrose. Parasites were grown with human A+ erythrocytes obtained from Florida OneBlood. Cultures were kept in an incubator with 5% […]
Antiplasmodial activity screening
SYBR Green I-based fluorescence assay was performed as previously described (Lee et al., 2021) following protocols by Smilkstein et. al. (Smilkstein et al., 2004). Asynchronous Dd2 parasites were added to serially diluted compounds and incubated for 72 h at 5% CO2, 95% air at 37°C. Plates were then frozen at -80°C, thawed, and incubated for one hour with 1x SYBR Green I in a lysis buffer (20 mM Tris-HCL, 0.08% saponin, 5 mM EDTA, and 0.8% Triton X-100). Fluorescence was then read on a Synergy Neo2 multimode reader (BioTek Winsooki, VT). […]

For a further assay, the system named is Dd2. Put plainly: Stage specific activity assay. The class given is cell-based, Plasmodium falciparum. The conditions noted are these: 5 × EC50. On the procedure: To corroborate the findings identified through the in vitro evolution of resistance, the activity of NPDG-F was assessed in a stage-dependent manner in vitro. Because actin proteins are needed for chromosome separation, we anticipated that parasites treated with NPDG-F would arrest late in the cell cycle. The parasite strain Dd2 was first synchronized and treated in ring (~6 h post invasion, HPI), trophozoite (~18 HPI), early schizont (~30 HPI), or late schizont (~42 HPI). Cultures were then observed in each condition every 12 h until reinvasion occurred via Giemsa stain and flow cytometry. When added in early ring, NPDG-F treated cultures proceeded normally through the intraerythrocytic life cycle until late schizogony (Fig. 4A). […]
EC50s. […] Dose-response curves were then generated for the available conditions where EC50s could be determined. The fractional inhibitor concentration of both compounds was then determined as described (Fivelman et al., 2004) for the available points and graphed on a scale of 0-1 also using Graphpad Prism version 10.
Cytotoxicity was assessed using an MTS (3-(4,5-Dimethylthiazol-2-yl)-5-(3-carboxymethoxyphenyl)-2-(4-sulfophenyl)-2H-tetrazolium) absorbance assay with human HepG2 hepatoma cells. […] Following a 48-h incubation with compounds, MTS solution was added to wells and absorbance was read after 2-4 h on a Synergy Neo2 multimode reader (BioTek Winsooki, VT). […]

Here are results for 1 molecule from article PMC11874377, “Fungal-derived methyldeoxaphomins target Plasmodium falciparum segregation through the inhibition of PfActin1” (Proceedings of the National Academy of Sciences of the …, 2025).

A word on the EC50: it is the concentration giving half of the maximal effect.

Where “and” joins values, the source holds several entries; their conditions need not be identical. Identical values can stand only once. Like-named read-outs stand apart in the source and are kept apart here.

Take `C=C1C(C)C2C(Cc3ccccc3)NC(=O)C23C(=O)C=CC(O)C(O)C(C)CC(C)CC=CC3C1O` (stereo not shown) [Methyldeoxaphomin NPDG-F]: the EC50 is 290 nM in assay [1] (Plasmodium falciparum, 3D7, abstract, read-out: EC50 in 3D7); 290 ± 30 nM in assay [1] (Plasmodium falciparum, 3D7, average ± SEM of three replicates, read-out: 3D7: Average EC50); 230 nM in assay [1] (Plasmodium falciparum, 3D7, individual replicates, read-out: 3D7: EC50); 290 ± 30 nM in assay [1] (Plasmodium falciparum, 3D7, means from triplicate experiments ± SEM, read-out: 3D7 EC50); 310 nM and 330 nM in assay [1] (individual replicates, read-out: 3D7: EC50). Also, in the assay with Dd2 (18, 30 or 42 HPI), the “effect when added after 6 HPI” value is reported as “persisted only in a minor population of schizonts”. In the assay with Dd2 (~6 HPI, synchronous Dd2), the “effect when added in early ring” value is “complete life cycle inhibition”.
